Results on four compounds are retold here after publication PMC5359596, “A new electro-optical approach for conductance measurement: an assay for the study of drugs acting on ligand-gated ion channels” (Scientific Reports, 2017).

What all share (assay type): cell-based
The target in test [1] is T1, P2RX7 receptor (Homo sapiens, UniProt Q99572).
T1 construct: host or cells: HEK-293
T1 sequence (Q99572 1-595): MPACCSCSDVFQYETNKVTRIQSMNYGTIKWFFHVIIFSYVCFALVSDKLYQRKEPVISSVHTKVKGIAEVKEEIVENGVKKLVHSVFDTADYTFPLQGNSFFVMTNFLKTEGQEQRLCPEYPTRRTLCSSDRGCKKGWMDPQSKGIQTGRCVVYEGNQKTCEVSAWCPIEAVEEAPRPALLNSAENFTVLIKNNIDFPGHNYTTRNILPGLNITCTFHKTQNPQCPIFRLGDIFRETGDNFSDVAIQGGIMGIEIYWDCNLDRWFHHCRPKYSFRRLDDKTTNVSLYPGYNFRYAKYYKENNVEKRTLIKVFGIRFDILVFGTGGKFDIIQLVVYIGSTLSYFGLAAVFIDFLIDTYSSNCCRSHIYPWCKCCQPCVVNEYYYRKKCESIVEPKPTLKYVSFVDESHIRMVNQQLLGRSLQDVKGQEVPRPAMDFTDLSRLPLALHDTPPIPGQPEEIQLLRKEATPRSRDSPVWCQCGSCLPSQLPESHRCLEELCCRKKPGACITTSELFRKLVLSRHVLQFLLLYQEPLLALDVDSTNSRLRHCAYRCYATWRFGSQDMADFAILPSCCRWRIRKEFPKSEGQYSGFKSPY
The experiment in a line: ionChannelΩ conductance assay, HEK-293 expressing P2RX7. As to conditions: HEK-293_P2RX7, agonist.

Test [2] has as its target T1, P2RX7 receptor. The experiment in a line: FLIPR (GCaMP2.1 calcium biosensor), HEK-293 expressing P2RX7. As to conditions: HEK-293_P2RX7, agonist. The method, then:
(§1) Intracellular calcium concentration was measured by: GCaMP2.1 calcium biosensor for P2RX7; Screen Quest™ Fluo-8 No. Wash Calcium Assay Kit (AAT Bioquest) for TRPV1; and Calcium Assay Kit (Molecular Devices) for TRPM2.
For the P2RX7 assay, cells were preincubated in Low Calcium, Magnesium free Tyrode’s Buffer.
Reference blockers were injected at FLIPRTetra instrument and fluorescence signal was recorded. After 10 minutes a second injection of reference activators was performed and fluorescence was measured.

For a further test, the target named is T2, hTRPV1 (Homo sapiens, UniProt Q8NER1).
T2 construct: host or cells: CHO-K1
T2 sequence (Q8NER1 whole entry): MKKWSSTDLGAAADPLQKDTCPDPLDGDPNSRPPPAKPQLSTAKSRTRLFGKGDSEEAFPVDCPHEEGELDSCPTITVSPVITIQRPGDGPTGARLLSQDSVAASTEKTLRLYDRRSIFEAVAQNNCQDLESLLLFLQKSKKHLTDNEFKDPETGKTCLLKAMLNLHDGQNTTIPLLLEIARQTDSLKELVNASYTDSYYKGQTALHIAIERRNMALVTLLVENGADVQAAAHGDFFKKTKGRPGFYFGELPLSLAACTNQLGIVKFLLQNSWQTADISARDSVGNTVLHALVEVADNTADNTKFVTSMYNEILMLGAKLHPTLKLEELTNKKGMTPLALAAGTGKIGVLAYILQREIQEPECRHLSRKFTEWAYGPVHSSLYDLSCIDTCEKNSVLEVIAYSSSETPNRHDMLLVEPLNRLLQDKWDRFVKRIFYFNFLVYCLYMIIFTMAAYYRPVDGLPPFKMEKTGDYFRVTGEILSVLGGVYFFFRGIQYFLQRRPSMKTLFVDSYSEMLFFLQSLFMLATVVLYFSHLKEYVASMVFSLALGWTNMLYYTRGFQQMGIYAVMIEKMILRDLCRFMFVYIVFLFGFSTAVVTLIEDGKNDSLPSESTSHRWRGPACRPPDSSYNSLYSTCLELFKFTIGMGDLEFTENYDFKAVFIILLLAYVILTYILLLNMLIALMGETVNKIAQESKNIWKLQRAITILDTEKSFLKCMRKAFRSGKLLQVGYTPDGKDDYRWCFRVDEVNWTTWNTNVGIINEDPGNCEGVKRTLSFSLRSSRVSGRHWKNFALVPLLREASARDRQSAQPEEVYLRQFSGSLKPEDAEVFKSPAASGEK
The experiment in a line: ionChannelΩ electro-optical conductance assay, CHO-K1 expressing hTRPV1. The conditions noted are these: scatter plot linear regression, highest capsaicin concentrations.

For test [3], the target named is T3, TRPM2 (Homo sapiens, UniProt O94759).
T3 construct: host or cells: HEK-293
T3 sequence (O94759 whole entry): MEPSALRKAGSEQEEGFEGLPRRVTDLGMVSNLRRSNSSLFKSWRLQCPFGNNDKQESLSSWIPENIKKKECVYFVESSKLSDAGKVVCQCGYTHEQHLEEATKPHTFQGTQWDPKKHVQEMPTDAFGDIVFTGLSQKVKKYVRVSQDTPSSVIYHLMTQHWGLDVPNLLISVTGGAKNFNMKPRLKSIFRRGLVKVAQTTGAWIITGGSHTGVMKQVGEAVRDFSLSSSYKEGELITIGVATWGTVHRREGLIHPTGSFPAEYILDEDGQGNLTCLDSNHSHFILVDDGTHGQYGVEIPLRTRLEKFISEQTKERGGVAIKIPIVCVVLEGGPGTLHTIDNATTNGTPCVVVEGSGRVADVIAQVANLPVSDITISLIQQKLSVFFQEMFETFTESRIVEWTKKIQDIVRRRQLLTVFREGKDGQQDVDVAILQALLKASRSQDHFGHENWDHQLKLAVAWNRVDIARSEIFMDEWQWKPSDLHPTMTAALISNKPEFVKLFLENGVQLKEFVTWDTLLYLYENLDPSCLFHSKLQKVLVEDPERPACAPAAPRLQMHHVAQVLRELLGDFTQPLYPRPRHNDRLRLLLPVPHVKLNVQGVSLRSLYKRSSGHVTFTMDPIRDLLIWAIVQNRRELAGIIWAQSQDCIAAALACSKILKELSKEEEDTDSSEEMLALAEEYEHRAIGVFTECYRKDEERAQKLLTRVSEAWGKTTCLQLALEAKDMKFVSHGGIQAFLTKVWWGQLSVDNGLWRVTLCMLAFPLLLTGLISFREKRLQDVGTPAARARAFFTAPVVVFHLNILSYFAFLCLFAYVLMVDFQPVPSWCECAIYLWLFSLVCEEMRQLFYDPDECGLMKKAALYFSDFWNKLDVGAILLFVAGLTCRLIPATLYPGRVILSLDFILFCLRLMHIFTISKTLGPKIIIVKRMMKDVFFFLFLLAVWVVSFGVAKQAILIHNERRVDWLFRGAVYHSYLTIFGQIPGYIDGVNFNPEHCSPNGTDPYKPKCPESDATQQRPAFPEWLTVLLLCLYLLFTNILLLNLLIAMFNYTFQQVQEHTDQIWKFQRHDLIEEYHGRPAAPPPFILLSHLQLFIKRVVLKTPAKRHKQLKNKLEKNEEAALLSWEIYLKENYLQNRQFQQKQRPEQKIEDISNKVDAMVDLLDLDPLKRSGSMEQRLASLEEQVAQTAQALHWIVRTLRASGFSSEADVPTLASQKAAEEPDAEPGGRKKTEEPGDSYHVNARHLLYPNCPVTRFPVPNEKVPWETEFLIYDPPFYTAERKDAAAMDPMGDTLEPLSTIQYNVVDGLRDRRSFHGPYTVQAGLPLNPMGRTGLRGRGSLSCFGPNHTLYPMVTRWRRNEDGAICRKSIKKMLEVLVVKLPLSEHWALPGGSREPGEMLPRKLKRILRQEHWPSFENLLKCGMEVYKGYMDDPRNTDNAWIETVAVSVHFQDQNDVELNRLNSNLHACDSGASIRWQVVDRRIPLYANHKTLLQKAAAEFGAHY
The experiment in a line: FLIPR (Calcium Assay Kit), HEK-293 expressing TRPM2. The conditions noted are these: HEK-293_TRPM2. The method, then: as §1

The target in test [4] is T3, TRPM2. The experiment in a line: ionChannelΩ conductance assay, HEK-293 expressing TRPM2. As to conditions: HEK-293_TRPM2.
Experimental: (§2) Test current pulses (mono or biphasic) were administered to cells by parallel electrodes placed on the plane of the cells. Pulse length was several times the membrane time constant of the investigated cells in order to acquire images at a time of the pulse when plateau was fully established. Current intensity was set high enough to generate significant variations in the fluorescence signal, still avoiding membrane electroporation[35]. More specifically, a plot of the ΔFc/FRc values obtained at increasing current values was obtained: only current intensities giving correlative values lying on the linear part of the plot were used. […]
(§3) Images are processed off-line by a MATLAB-based Image Analysis program, developed in the laboratory, which offers the possibility to employ different filters, parameters and types of analysis in order to extract the data necessary to draw CRCs. […] More specifically, pixels were selected as part of the shape mask when the following requirements were met: to be part of the cell (recognition of object boundary from fluorescence signals); to be confined to the plasma membrane region (calculation of a ring of depth boundaries). […] In either case, mean values ± standard error (calculated from values obtained in the different sampling areas of the same well) were obtained at the various concentration of the drug and fitted by a nonlinear regression curve. […]
For another test, the system named is HeLa cells. The experiment in a line: Optical detection of plasma membrane resistance changes in HeLa cells (conventional microscope). The conditions noted are these: increasing concentrations. The source says:
Resistance (R) determines the magnitude of the passive changes observed in membrane potential in response to a constant current: the lower the resistance, the lower the membrane potential variation (Supplementary Figure 1). Accordingly, we investigated the possibility of using local membrane potential variations imposed by a test square current pulse to measure changes in membrane resistance. The variation of VSD fluorescence values during the current pulse, were quantified as ΔF, i.e. the difference between the plateau value reached during the electric stimulus (FS) and the pre-stimulus, resting, value (FR) (Supplementary Figure 1). ΔF values were further normalized to their respective resting values (ΔF/FR) to take into account even minimal variations of VSD fluorescence due to dye bleaching. […]
Images were processed off-line by an image analysis program developed in MATLAB (The MathWorks). […] Fluorescence intensity values were calculated as the mean of the values obtained in the selected ROIs within the 3 stimuli series administered in the different conditions (before and during the plateau phase of the pulse, in the absence and in the presence of a test compound). […]

As usually defined, the EC50 is the midpoint of the concentration-response curve.

Experimental for hTRPV1: as §2, §3

As to “2′(3′)-O-(4-Benzoylbenzoyl)adenosine 5′-triphosphate triethylammonium salt [BzATP]”, the EC50 on P2RX7 receptor [1] stood at 3.4 µM; at P2RX7 receptor [2], 6.35 µM.
Turning to `COc1cc(CNC(=O)CCCC/C=C/C(C)C)ccc1O` [capsaicin], the “unitary slope resistance, final value at increasing concentrations” value on hTRPV1 was ~20 % of control.
With `COC1=C(N)C(=O)c2nc(-c3nc(C(=O)O)c(C)c(-c4ccc(OC)c(OC)c4O)c3N)ccc2C1=O` [streptonigrin], the EC50 on TRPM2 [3] turned out to be 4.3 µM; on TRPM2 [4], 14.1 µM.
Take “Streptolysin-O: bacterial protein able to insert into the eukaryotic plasma membrane and form non-selective ion pores”: in the test with HeLa cells, the “VSD responses to electric square pulses (membrane resistance)” value was “progressively reduced in amplitude”.
